Here are results for three compounds from US20060204502A1 (priority 2004, published 2006).

Read-outs that look alike come from different tables or passages of the source.

Data set [1] concerns p38 MAPK. Description: p38 MAPK phosphorylation immunoblot, A375 cells in hypoxia. In kind it is cell-based, human. The following applies: 4 hours hypoxia, 10-1000 nM. As to the method: (§1) Cells were harvested and washed with ice-cold PBS containing 1 mM sodium orthovanadate, AEBSF 104 mM, aprotinin 0.08 mM, leupeptin 2 mM, bestatin 4 mM, pepstatin A 1.5 mM, E-64 1.4 mM. Cells were then lysed in Triton lysis buffer. The protein concentration was determined using BCA protein assay kit (Pierce). Equivalent amounts of protein (35 ug) were subjected to electrophoresis on 7.5% sodium dodecyl sulfate-acrylamide gel. The gel was then electroblotted onto a nitrocellulose membrane. Membranes were blocked with 5% nonfat dry milk in PBS containing 0.1% Tween-20 and incubated with antibodies against HIF-1α (1:250 dilution) and HIF-1β (1:1000 dilution) in 5% nonfat dry milk in PBS/0.1% Tween-20 overnight at 4° C. Aliquots of total protein sample (50 ug) were analyzed using antibodies specific for phosphorylated (Thr183/Tyr185) or total p44/p42 MAPK (1:5000 dilution), phosphorylated (Thr180/Tyr182) or total p38 MAPK (1:1000 dilution) and for A3 receptor (1 µg/ml dilution). Filters were washed and incubated for 1 hour at room temperature with peroxidase-conjugated secondary antibodies against mouse and rabbit IgG (1:2000 dilution). […] The membranes were then stripped and reprobed with tubulin (1:250) to ensure equal protein loading. […]

Data set [2] has as its system p44/p42 MAPK. Nature of the data set: p44/p42 MAPK phosphorylation immunoblot, A375 cells in hypoxia. In kind it is cell-based, human. Conditions: 4 hours hypoxia, nanomolar concentrations, maximum at 100 nM. The procedure:
as §1

Data set [3] has as its system HIF-1α. Nature of the data set: HIF-1α protein immunoblot in hypoxic cells. In kind it is cell-based, human. Conditions: for HIF-1α protein expression: 100 nM, 4 hours hypoxia. As to the method: Cell culture and hypoxia treatment: Cells were maintained in DMEM (A375), EMEM (NCTC 2544) or RPMI 1640 (U87MG, U2OS) medium containing 10% fetal calf serum, penicillin (100 U/ml), streptomycin (100 ug/ml), and L-glutamine (2 mM) at 37° C. in 5% CO2/95% air. Cells were passaged two or three times weekly at a ratio between 1:5 and 1:10. Hypoxic exposure was in BBL™ GasPak pouch™ System (Becton Dickinson) that reduce oxygen concentration of less than 2% within 2 hours of incubation at 35° C.
Cells were harvested and washed with ice-cold PBS containing 1 mM sodium orthovanadate, AEBSF 104 mM, aprotinin 0.08 mM, leupeptin 2 mM, bestatin 4 mM, pepstatin A 1.5 mM, E-64 1.4 mM. Cells were then lysed in Triton lysis buffer. The protein concentration was determined using BCA protein assay kit (Pierce). […] The gel was then electroblotted onto a nitrocellulose membrane. Membranes were blocked with 5% nonfat dry milk in PBS containing 0.1% Tween-20 and incubated with antibodies against HIF-1α (1:250 dilution) and HIF-1β (1:1000 dilution) in 5% nonfat dry milk in PBS/0.1% Tween-20 overnight at 4° C. Aliquots of total protein sample (50 ug) were analyzed using antibodies specific for phosphorylated (Thr183/Tyr185) or total p44/p42 MAPK (1:5000 dilution), phosphorylated (Thr180/Tyr182) or total p38 MAPK (1:1000 dilution) and for A3 receptor (1 µg/ml dilution). Filters were washed and incubated for 1 hour at room temperature with peroxidase-conjugated secondary antibodies against mouse and rabbit IgG (1:2000 dilution). […] The membranes were then stripped and reprobed with tubulin (1:250) to ensure equal protein loading.
U0126 was used at 10 and 30 uM as inhibitor of MEK-1 and MEK-2 to prevent p44 and p42 MAPK activation. SB202190 was used at 1 and 10 uM as inhibitor of p38 MAPK.
Densitometry analysis: The intensity of each band in immunoblot assay was quantified using molecular analyst/PC densitometry software (Bio-Rad). […] The data were presented as the mean±S.E., and analyzed by the Student's test.

Data set [4] relates to A375 cells. Nature of the data set: Colony formation assay of A375 cells. The data set is classed as cell-based, human. The procedure: FIG. 2 illustrates colony formation assay of A375 cells. Cells were treated with different drugs and colonies were counted after 7 days. The values represent the mean±SEM of four independent experiments. […] Analysis was by ANOVA followed by Dunnett's test.
Control plates received the same volume of DMSO alone. After 7 days of growth at 37° C. in humidified atmosphere containing 5% CO2, the cells were fixed with absolute methanol for 5′ and stained with 1/10 Giemsa/phosphate-buffered saline (PBS) staining solution for 10 minutes. Staining solution was removed and colonies of greater than 30 cells were scored as survivors. For each treatment, six individual wells were scored.

Data set [5] relates to HIF-1α mRNA. Description: Real-Time RT-PCR of HIF-1α mRNA, A375 cells in hypoxia. In kind it is cell-based, human. Conditions: 4 hours hypoxia. Background: In qPCR the cycle at which signal appears reflects the starting amount.
The test system of data set [6] is A375 cells. Description: Flow cytometry cell cycle (G2/M) and apoptosis (sub-G1) analysis, A375. In kind it is cell-based, human. Conditions: A375; for EC50: Homo sapiens, A-375. As to the method:
Flow Cytometry Analysis: A375 and NCTC2544 adherent cells were trypsinized, mixed with floating cells, washed with PBS and permeabilised in 70% (vol/vol) ethanol/PBS solution at 4° C. for at least 24 hours. Jurkat, HeL023 and PBMC cells were centrifuged for 10 minutes at 1000×g. The cell pellet was then resuspended and permeabllised in 70% (vol/vol) ethanol/PBS solution at 4° C. for at least 24 hours. The cells were washed with PBS and the DNA was stained with a PBS solution, containing 20 μg/ml of propidium iodide and 100 μg/ml of RNAse, at room temperature for 30 minutes. Cells were analysed by FACScan (Becton-Dickinson) and the content of DNA was evaluated by the Cell-LISYS program (Becton-Dickinson). Cell distribution among cell cycle phases and apoptotic cells was evaluated as previously described (Secchiero et al., 2001). Briefly, the cell cycle distribution is shown as the percentage of cells containing 2n (G1 phase), 4n (G2 and M phases), 4n>x>2n. DNA amount (S phase) judged by propidium iodide staining. The apoptotic population is the percentage of cells with DNA content lower than 2n.
After 24 hours, cells were collected for flow cytometry analysis. PD 98059 was used at 20 uM as an inhibitor of MEK to prevent MEK-1 activation. […]
EC50 values were obtained by analysing G2/M accumulation dose response curve. ECMAX values were obtained by analysing sub-G1 accumulation dose response curve. Paclitaxel values have units of ng/ml.
In general terms: In flow cytometry, cells or beads pass a laser one at a time.

The subject of data set [7] is PBMC blasts. Nature of the data set: Flow cytometry cell cycle analysis, PBMC blasts. In kind it is cell-based. The following applies: Homo sapiens, + MRE3008F20 10 μM, read-out: EC50 (G2/M accumulation).
Description: For multi-drug resistance testing, A375 and NCTC2544 cells are grown adherently and maintained in DMEM and EMEM medium, respectively, containing 10% fetal calf serum, penicillin (100 U/ml), streptomycin (100 μg/ml), L-glutamine (2 mM) at 37° C. in 5% CO2/95% air. HeL023 and Jurkat were grown in RPMI-1640 medium, containing 10% fetal calf serum, penicillin (100 U/ml), streptomycin (100 μg/ml), L-glutamine (2 mM) at 37° C. in 5% CO2/95% air. Cells are passaged two or three times weekly at a ratio between 1:5 and 1:10. Lymphocytes were isolated from buffy coats kindly provided by the Blood Bank of the University Hospital of Ferrara. Blood donated by healthy volunteers, after informed consent for research was obtained. Lymphocytes were isolated by density gradient centrifugation (Ficoll/Histopaque 1.077 g/ml). […]
Flow Cytometry Analysis: A375 and NCTC2544 adherent cells were trypsinized, mixed with floating cells, washed with PBS and permeabilised in 70% (vol/vol) ethanol/PBS solution at 4° C. for at least 24 hours. […] Cells were analysed by FACScan (Becton-Dickinson) and the content of DNA was evaluated by the Cell-LISYS program (Becton-Dickinson). Cell distribution among cell cycle phases and apoptotic cells was evaluated as previously described (Secchiero et al., 2001). […]
For data set [8], the system named is Human Melanoma A375. Nature of the data set: MTT growth inhibitory assay, A375. Conditions: Homo sapiens, A-375, read-out: IC50 (μg/ml) of anti-neoplastic agent used jointly with A3 antagonist, A375 cells. For orientation: Formazan colour is commonly taken as a measure of viable cells.
For data set [9], the target named is P-gp (Homo sapiens, UniProt P08183). In kind it is cell-based. Conditions: HeL023 cells; 10 μM. As to the method:
Rhodamine 123 Efflux Assay: 5×10^5 cells from each subline were loaded with 50 ng/ml of rhodamine 123 for 30 minutes at 37 C in medium. The cells were washed and resuspended in dye-staining agent free medium for 3 hours at 37 C. to allow rhodamine 123 efflux. The cells were then washed twice and the fluorescence of intracellular rhodamine 123 were analysed with Flow cytometer (residual fluorescence FRES). The fluorescence was compared with loaded cells maintained at 4 C. to prevent drug export (maximal fluorescence FMAX). […] Cells from each subline that were not being exposed to rhodamine 123 were used as negative controls.
Rhodamine 123 (Rh123) retention, a P-gp functional assay, was studied in all cell lines. This assay was performed by incubating cells with Rh123 and determining Rh123 accumulation by measuring its fluorescence. The maximum load of Rh123 (FMAX) was quantified at the end of treatment harvesting the cells and storing them at 4° C. to prevent any active Rh123 efflux. The P-gp drug efflux was allowed incubating Rh123-loaded cells in fresh new medium Rh123-free for 3 hours at 37° C. After this incubation, residual fluorescence (FRES) was measured and compared to FMAX.

The target of data set [10] is T1, human A3 adenosine receptor (Homo sapiens, UniProt P0DMS8).
T1 construct: endogenous in cells; host or cells: A375 human melanoma cells (ATCC)
T1 sequence (P0DMS8 1-318): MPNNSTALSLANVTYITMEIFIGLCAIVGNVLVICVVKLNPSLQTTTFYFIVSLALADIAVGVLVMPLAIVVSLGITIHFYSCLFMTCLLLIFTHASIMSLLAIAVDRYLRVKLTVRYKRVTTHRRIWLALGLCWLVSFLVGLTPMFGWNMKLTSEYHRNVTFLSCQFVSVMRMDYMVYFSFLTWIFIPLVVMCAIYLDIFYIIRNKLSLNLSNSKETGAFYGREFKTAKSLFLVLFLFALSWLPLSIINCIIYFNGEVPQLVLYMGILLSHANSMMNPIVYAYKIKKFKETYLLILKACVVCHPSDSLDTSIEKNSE
Description: Binding affinity to A3 adenosine receptor in A375 cells.

P-gp, sequence (P08183 whole entry): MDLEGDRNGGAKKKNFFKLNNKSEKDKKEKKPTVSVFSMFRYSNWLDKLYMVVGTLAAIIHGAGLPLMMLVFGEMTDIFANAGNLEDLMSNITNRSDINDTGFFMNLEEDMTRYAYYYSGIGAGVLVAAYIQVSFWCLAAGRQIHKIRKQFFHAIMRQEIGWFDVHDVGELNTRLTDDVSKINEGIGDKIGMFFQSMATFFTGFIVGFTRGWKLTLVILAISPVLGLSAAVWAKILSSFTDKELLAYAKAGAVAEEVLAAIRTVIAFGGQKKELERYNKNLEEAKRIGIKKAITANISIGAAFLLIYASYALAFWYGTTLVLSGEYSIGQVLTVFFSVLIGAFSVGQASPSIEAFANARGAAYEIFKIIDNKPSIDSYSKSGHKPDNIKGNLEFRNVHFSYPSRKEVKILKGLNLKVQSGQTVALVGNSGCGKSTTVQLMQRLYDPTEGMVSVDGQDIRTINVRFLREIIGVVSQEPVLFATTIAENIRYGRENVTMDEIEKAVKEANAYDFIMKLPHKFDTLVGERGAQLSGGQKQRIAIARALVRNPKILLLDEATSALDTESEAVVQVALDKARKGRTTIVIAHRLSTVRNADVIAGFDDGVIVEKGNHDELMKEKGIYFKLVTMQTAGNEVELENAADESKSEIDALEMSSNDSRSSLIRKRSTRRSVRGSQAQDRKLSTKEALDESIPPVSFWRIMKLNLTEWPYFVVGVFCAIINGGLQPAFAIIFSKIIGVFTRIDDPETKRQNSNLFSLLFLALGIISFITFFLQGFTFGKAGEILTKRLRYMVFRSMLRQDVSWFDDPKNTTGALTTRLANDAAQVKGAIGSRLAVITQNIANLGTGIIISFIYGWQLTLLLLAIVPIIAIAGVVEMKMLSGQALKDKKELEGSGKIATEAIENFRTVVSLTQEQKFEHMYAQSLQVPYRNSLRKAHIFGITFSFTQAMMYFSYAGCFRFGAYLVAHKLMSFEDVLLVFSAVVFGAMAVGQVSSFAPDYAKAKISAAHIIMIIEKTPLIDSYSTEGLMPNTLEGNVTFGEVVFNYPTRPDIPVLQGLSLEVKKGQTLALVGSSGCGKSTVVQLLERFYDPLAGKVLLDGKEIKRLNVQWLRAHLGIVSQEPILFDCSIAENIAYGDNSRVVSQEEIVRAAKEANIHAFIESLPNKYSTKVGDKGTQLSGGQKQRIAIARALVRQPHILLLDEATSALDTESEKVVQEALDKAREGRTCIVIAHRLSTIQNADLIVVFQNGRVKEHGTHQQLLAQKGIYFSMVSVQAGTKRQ

Consider `CNC(=O)[C@H]1O[C@@H](n2cnc3c(NCc4cccc(I)c4)nc(Cl)nc32)[C@H](O)[C@@H]1O` [Cl-IB-MECA], for which the “phosphorylation of p38 MAPK” value in data set [1] is recorded as “increased the phosphorylation of p38 MAPK in a dose-dependent manner”. For the same compound, the “phosphorylation of p44 and p42” value in data set [2] is listed as “induced”. Further, the EC50 in data set [3] (A375, hypoxia 4 hours, read-out: EC50, HIF-1α protein accumulation) came out at 10.6 ± 1.2 nM. The HIF-1α protein expression entry in data set [3] (U2OS osteosarcoma), in [3] (U87MG glioblastoma) and in data set [3] (human keratinocytes NCTC 2544) was “significant increase” each time. Moreover, the “colony formation, % of DMSO control” value in [4] (10 μM alone, colonies counted after 7 days) is recorded as 130%; in [4] (10 μM combined with paclitaxel (0.75 μg/ml), 7 days), 85%. Besides, the entries for the “fold increase of HIF-1α mRNA accumulation vs untreated cells” value in [5] (10 nM), in data set [5] (100 nM) and in [5] (1 μM) were 1.13±0.10 fold, 1.25±0.15 fold and 1.19±0.13 fold, respectively.
On to `CC(=O)O[C@H]1C(=O)[C@@]2(C)[C@H]([C@H](OC(=O)c3ccccc3)[C@]3(O)C[C@H](OC(=O)[C@H](O)[C@@H](NC(=O)c4ccccc4)c4ccccc4)C(C)=C1C3(C)C)[C@]1(OC(C)=O)CO[C@@H]1C[C@@H]2O` [paclitaxel], for which, in data set [6] (DMSO (no antagonist)), the “ECMAX (concentration exerting maximal apoptosis, sub-G1)” value turned out to be 6.00 ± 0.63 ng/mL. In addition, the EC50 in data set [6] (24 h, DMSO (no antagonist), read-out: EC50 (G2/M accumulation)) is 16.6 ± 2 ng/mL; in data set [7] it was 5.3 ± 0.6 ng/mL. For the same compound, the “colony formation, % of DMSO control” value in data set [4] (paclitaxel (0.75 μg/ml) alone, 7 days) is 64%. The results for the IC50 in data set [8] (+ IL-11 (5 μg/ml)) and in [8] (+ MRE3008F20 (10 μg/ml)) were 0.00046 µg/mL and 0.00059 µg/mL, respectively.
On to `CCCCn1cc2c(nc(NC(=O)Nc3ccccc3)n3nc(-c4ccco4)nc23)n1` [MRE 3062F20, 5-N-(4-phenyl-carbumoyl)amino-8-butyl-2(2furyl)-pyrazolo-[4,3e]-1,2,4-triazolo[1,5-c]pyrimidine], for which, in data set [9], the “% of Rh123 Negative Cells (cells expressing P-gp activity)” value is listed as 1.0 ± 0.2%. Also, the EC50 in [6] (antagonist dose inducing 50% of the enhancing activity to vindesine (1 nM), G2/M accumulation, read-out: SEC50) amounted to 430 ± 40 nM. The affinity in data set [10], expressed as Ki, was 2.3 ± 0.2 nM.
